Reference: the NIST ThermoML archive (doi:10.1021/acs.jced.8b00153)
“And” between values parts separate entries of the source, which are not always exact repeats. Equal values may be shown once.

Conditions: for surface tension liquid-gas: Drop volume; for viscosity / speed of sound / mass density / vapor or sublimation pressure: Liquid; for viscosity: Capillary tube (Ostwald / Ubbelohde) method; for speed of sound: Frequency=3 MHz, Single path-length method; for mass density: Vibrating tube method; for vapor or sublimation pressure: Ebulliometric method (Recirculating still)

CCc1ccco1 [2-ethylfuran]
Conditions | surface tension liquid-gas [mN/m] | vapor or sublimation pressure [kPa]
278.15 K | 27.22 | –
280.65 K | 26.91 | –
283.15 K | 26.59 | –
285.65 K | 26.31 | –
288.15 K | 26.01 | –
289.96 K | – | 4.96
290.65 K | 25.62 | –
292.18 K | – | 5.57
293.15 K | 25.32 | –
293.77 K | – | 6.05
295.65 K | 25.09 | –

Conditions | mass density | speed of sound [m/s] | viscosity [mPa·s]
278.15 K, 100 kPa | 920.97 kg/m3 | 1281 | 0.6327
280.65 K, 100 kPa | 918.26 kg/m3 | 1270.8 | 0.6126
283.15 K, 100 kPa | 915.55 kg/m3 and 915.5 kg/m3 | 1259.4 | 0.5934
283.15 K, 2000 kPa | 917.27 kg/m3 | – | –
283.15 K, 5000 kPa | 919.69 kg/m3 | – | –
283.15 K, 7000 kPa | 921.41 kg/m3 | – | –
283.15 K, 10000 kPa | 923.87 kg/m3 | – | –
283.15 K, 15000 kPa | 927.84 kg/m3 | – | –
283.15 K, 20000 kPa | 931.59 kg/m3 | – | –
283.15 K, 25000 kPa | 935.19 kg/m3 | – | –
283.15 K, 30000 kPa | 938.66 kg/m3 | – | –
283.15 K, 35000 kPa | 942.04 kg/m3 | – | –
283.15 K, 40000 kPa | 945.33 kg/m3 | – | –
283.15 K, 45000 kPa | 948.5 kg/m3 | – | –
283.15 K, 50000 kPa | 951.53 kg/m3 | – | –
283.15 K, 55000 kPa | 954.61 kg/m3 | – | –
283.15 K, 60000 kPa | 957.6 kg/m3 | – | –
283.15 K, 65000 kPa | 960.38 kg/m3 | – | –
285.65 K, 100 kPa | 912.83 kg/m3 | 1248.7 | 0.5733
288.15 K, 100 kPa | 910.1 kg/m3 and 910.08 kg/m3 | 1238.5 | 0.556
288.15 K, 2000 kPa | 911.89 kg/m3 | – | –
288.15 K, 5000 kPa | 914.37 kg/m3 | – | –
288.15 K, 7000 kPa | 916.19 kg/m3 | – | –
288.15 K, 10000 kPa | 918.68 kg/m3 | – | –
288.15 K, 15000 kPa | 922.7 kg/m3 | – | –
288.15 K, 20000 kPa | 926.63 kg/m3 | – | –
288.15 K, 25000 kPa | 930.32 kg/m3 | – | –
288.15 K, 30000 kPa | 933.89 kg/m3 | – | –
288.15 K, 35000 kPa | 937.37 kg/m3 | – | –
288.15 K, 40000 kPa | 940.66 kg/m3 | – | –
288.15 K, 45000 kPa | 943.92 kg/m3 | – | –
288.15 K, 50000 kPa | 947.13 kg/m3 | – | –
288.15 K, 55000 kPa | 950.18 kg/m3 | – | –
288.15 K, 60000 kPa | 953.28 kg/m3 | – | –
288.15 K, 65000 kPa | 956.1 kg/m3 | – | –
290.65 K, 100 kPa | 907.37 kg/m3 | 1227.6 | 0.5394
293.15 K, 100 kPa | 904.64 kg/m3 and 904.65 kg/m3 | 1216.7 | 0.5214
293.15 K, 2000 kPa | 906.44 kg/m3 | – | –
293.15 K, 5000 kPa | 909.05 kg/m3 | – | –
293.15 K, 7000 kPa | 910.93 kg/m3 | – | –
293.15 K, 10000 kPa | 913.5 kg/m3 | – | –
293.15 K, 15000 kPa | 917.66 kg/m3 | – | –
293.15 K, 20000 kPa | 921.69 kg/m3 | – | –
293.15 K, 25000 kPa | 925.54 kg/m3 | – | –
293.15 K, 30000 kPa | 929.07 kg/m3 | – | –
293.15 K, 35000 kPa | 932.7 kg/m3 | – | –
293.15 K, 40000 kPa | 936.06 kg/m3 | – | –
293.15 K, 45000 kPa | 939.48 kg/m3 | – | –
293.15 K, 50000 kPa | 942.66 kg/m3 | – | –
293.15 K, 55000 kPa | 945.78 kg/m3 | – | –
293.15 K, 60000 kPa | 948.91 kg/m3 | – | –
293.15 K, 65000 kPa | 951.86 kg/m3 | – | –
295.65 K, 100 kPa | – | 1205.2 | 0.5061
